Assay results taken from PubChem BioAssay (NCI).
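Each compound was tested at five concentrations against cells in 96-well plates for 48 hours. The concentration for full growth arrest is given as TGI.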

What was measured:
Assay in all cases: inhibition of tumour cell growth, NCI panel, 48 h
A498 renal = test system: A498 renal
SK-MEL-28 melanoma = test system: SK-MEL-28 melanoma
HS 578T breast = test system: HS 578T breast
MDA-MB-231 breast = test system: MDA-MB-231 breast
UACC-257 melanoma = test system: UACC-257 melanoma
SNB-75 CNS = test system: SNB-75 CNS
ACHN renal = test system: ACHN renal
M14 melanoma = test system: M14 melanoma
RPMI-8226 leukemia = test system: RPMI-8226 leukemia
EKVX NSCLC = test system: EKVX NSCLC
MCF7 breast = test system: MCF7 breast
SF-539 CNS = test system: SF-539 CNS
OVCAR-4 ovarian = test system: OVCAR-4 ovarian
KM12 colon = test system: KM12 colon
UACC-62 melanoma = test system: UACC-62 melanoma
HCT-15 colon = test system: HCT-15 colon
IGROV1 ovarian = test system: IGROV1 ovarian
786-0 renal = test system: 786-0 renal
TK-10 renal = test system: TK-10 renal
SF-268 CNS = test system: SF-268 CNS
SW-620 colon = test system: SW-620 colon
NCI-H226 lung = test system: NCI-H226 lung
OVCAR-5 ovarian = test system: OVCAR-5 ovarian
U251 CNS = test system: U251 CNS
LOX IMVI melanoma = test system: LOX IMVI melanoma
OVCAR-3 ovarian = test system: OVCAR-3 ovarian
RXF 393 renal = test system: RXF 393 renal
SK-OV-3 ovarian = test system: SK-OV-3 ovarian
MOLT-4 leukemia = test system: MOLT-4 leukemia
UO-31 renal = test system: UO-31 renal
HOP-62 NSCLC = test system: HOP-62 NSCLC
BT-549 breast = test system: BT-549 breast
HT29 colon = test system: HT29 colon
SF-295 CNS = test system: SF-295 CNS
HCC-2998 colon = test system: HCC-2998 colon
PC-3 prostate = test system: PC-3 prostate
T-47D breast = test system: T-47D breast
A549 NSCLC = test system: A549 NSCLC
MALME-3M melanoma = test system: MALME-3M melanoma
COLO 205 colon = test system: COLO 205 colon
NCI/ADR-RES ovarian = test system: NCI/ADR-RES ovarian
SR leukemia = test system: SR leukemia
HCT-116 colon = test system: HCT-116 colon
NCI-H23 lung = test system: NCI-H23 lung
SK-MEL-5 melanoma = test system: SK-MEL-5 melanoma
CAKI-1 renal = test system: CAKI-1 renal
HOP-92 NSCLC = test system: HOP-92 NSCLC
SNB-19 CNS = test system: SNB-19 CNS
NCI-H460 lung = test system: NCI-H460 lung
OVCAR-8 ovarian = test system: OVCAR-8 ovarian
DU-145 prostate = test system: DU-145 prostate
SN12C renal = test system: SN12C renal
SK-MEL-2 melanoma = test system: SK-MEL-2 melanoma
K-562 leukemia = test system: K-562 leukemia
NCI-H522 lung = test system: NCI-H522 lung
HL-60(TB) leukemia = test system: HL-60(TB) leukemia
MDA-MB-435 = test system: MDA-MB-435
CCRF-CEM leukemia = test system: CCRF-CEM leukemia

`COc1ccc(-n2nnc3c(C#N)c(C)c(-c4ccccc4)n3c2=O)cc1` showed a TGI (A498 renal) greater than 100000 nM, a TGI (SK-MEL-28 melanoma) greater than 100000 nM and a TGI (HS 578T breast) greater than 100000 nM. For the same compound, the TGI (MDA-MB-231 breast) was greater than 79100 nM, the TGI (UACC-257 melanoma) was greater than 100000 nM and the TGI (SNB-75 CNS) was greater than 29200 nM. It also gave a TGI (ACHN renal) greater than 100000 nM, a TGI (M14 melanoma) greater than 26700 nM and a TGI (RPMI-8226 leukemia) greater than 100000 nM. The TGI (EKVX NSCLC) was greater than 26100 nM, the TGI (MCF7 breast) was greater than 100000 nM and the TGI (SF-539 CNS) was greater than 20000 nM. The TGI (OVCAR-4 ovarian) was greater than 100000 nM, the TGI (KM12 colon) was greater than 100000 nM and the TGI (UACC-62 melanoma) was greater than 100000 nM. It also gave a TGI (HCT-15 colon) greater than 100000 nM, a TGI (IGROV1 ovarian) greater than 100000 nM and a TGI (786-0 renal) of 8240 nM. The TGI (TK-10 renal) was greater than 100000 nM, the TGI (SF-268 CNS) was greater than 100000 nM and the TGI (SW-620 colon) was greater than 100000 nM. For the same compound, the TGI (NCI-H226 lung) was greater than 100000 nM, the TGI (OVCAR-5 ovarian) was greater than 57600 nM and the TGI (U251 CNS) was greater than 41500 nM. The TGI (LOX IMVI melanoma) was greater than 100000 nM, the TGI (OVCAR-3 ovarian) was 44600 nM and the TGI (RXF 393 renal) was greater than 21400 nM. The TGI (SK-OV-3 ovarian) was greater than 22400 nM, the TGI (MOLT-4 leukemia) was greater than 58100 nM and the TGI (UO-31 renal) was greater than 100000 nM. For the same compound, the TGI (HOP-62 NSCLC) was greater than 100000 nM, the TGI (BT-549 breast) was greater than 100000 nM and the TGI (HT29 colon) was greater than 100000 nM. For the same compound, the TGI (SF-295 CNS) was greater than 27500 nM, the TGI (HCC-2998 colon) was greater than 33200 nM and the TGI (PC-3 prostate) was greater than 100000 nM. For the same compound, the TGI (T-47D breast) was greater than 100000 nM, the TGI (A549 NSCLC) was greater than 38800 nM and the TGI (MALME-3M melanoma) was greater than 100000 nM. The TGI (COLO 205 colon) was 10600 nM, the TGI (NCI/ADR-RES ovarian) was 21100 nM and the TGI (SR leukemia) was greater than 100000 nM. It also gave a TGI (HCT-116 colon) of 2650 nM, a TGI (NCI-H23 lung) greater than 100000 nM and a TGI (SK-MEL-5 melanoma) of 17000 nM. The TGI (CAKI-1 renal) was greater than 100000 nM, the TGI (HOP-92 NSCLC) was greater than 100000 nM and the TGI (SNB-19 CNS) was greater than 21600 nM. The TGI (NCI-H460 lung) was greater than 39300 nM, the TGI (OVCAR-8 ovarian) was greater than 70800 nM and the TGI (DU-145 prostate) was 8000 nM. The TGI (SN12C renal) was greater than 63700 nM and the TGI (SK-MEL-2 melanoma) was greater than 100000 nM.
`CCCC(=O)Nc1cc(/C=C/C(=O)N2CC(CCl)c3c2cc(OC(C)=O)c2[nH]cc(C)c32)n(C)c1` (configuration not stated) was tested, and the TGI (A498 renal) was 0.667 nM, the TGI (HS 578T breast) was 1.93 nM and the TGI (MDA-MB-231 breast) was greater than 250 nM. For the same compound, the TGI (SNB-75 CNS) was less than 0.025 nM, the TGI (RPMI-8226 leukemia) was 7.62 nM and the TGI (EKVX NSCLC) was 6.65 nM. It also gave a TGI (MCF7 breast) greater than 75.9 nM, a TGI (SF-539 CNS) of 0.107 nM and a TGI (OVCAR-4 ovarian) of 21.3 nM. For the same compound, the TGI (KM12 colon) was 2.47 nM, the TGI (UACC-62 melanoma) was 0.0423 nM and the TGI (HCT-15 colon) was greater than 134 nM. For the same compound, the TGI (IGROV1 ovarian) was greater than 250 nM, the TGI (SF-268 CNS) was less than 0.025 nM and the TGI (SW-620 colon) was greater than 250 nM. For the same compound, the TGI (NCI-H226 lung) was 0.748 nM, the TGI (U251 CNS) was 105 nM and the TGI (LOX IMVI melanoma) was greater than 250 nM. It also gave a TGI (RXF 393 renal) of less than 0.025 nM, a TGI (K-562 leukemia) greater than 197 nM and a TGI (SK-OV-3 ovarian) of 69.1 nM. The TGI (MOLT-4 leukemia) was 4.36 nM, the TGI (HOP-62 NSCLC) was 3.89 nM and the TGI (BT-549 breast) was 2.27 nM. The TGI (HT29 colon) was greater than 250 nM, the TGI (SF-295 CNS) was 0.311 nM and the TGI (NCI-H522 lung) was 0.0426 nM. It also gave a TGI (T-47D breast) of 68.9 nM, a TGI (MALME-3M melanoma) of 0.0955 nM and a TGI (HL-60(TB) leukemia) of 1.01 nM. For the same compound, the TGI (COLO 205 colon) was 0.0432 nM, the TGI (NCI/ADR-RES ovarian) was 12.1 nM and the TGI (SR leukemia) was greater than 250 nM. The TGI (MDA-MB-435) was 0.686 nM, the TGI (NCI-H23 lung) was 0.0872 nM and the TGI (SK-MEL-5 melanoma) was 0.0584 nM. It also gave a TGI (HOP-92 NSCLC) of 0.146 nM, a TGI (CCRF-CEM leukemia) of 0.161 nM and a TGI (SNB-19 CNS) of 43.6 nM. For the same compound, the TGI (NCI-H460 lung) was 0.419 nM, the TGI (OVCAR-8 ovarian) was 0.858 nM and the TGI (DU-145 prostate) was 4.53 nM. For the same compound, the TGI (SN12C renal) was 5.19 nM and the TGI (SK-MEL-2 melanoma) was 0.121 nM.
